Patent US7645773B2, “Thiazoles as inhibitors of 11β-hydroxysteroid dehydrogenase” (Hoffmann-La Roche Inc., priority 2006, dated 2010)

Target: Purified human HSD1 (Homo sapiens, UniProt P28845)
Assay: In vitro inhibition of 11β-HSD1, enzyme assay (time-resolved fluorescence)
Format: biochemical
Conditions: purified human HSD1, cortisone substrate, 37° C. for 30 min
Experimental: Purified human HSD1 was diluted in 50 mM Tris-HCl, 100 mM NaCl, 0.1 mg/mL BSA, 0.02% Lubrol, 20 mM MgCl2, 10 mM glucose 6-phosphate, 0.4 mM NADPH, 60 U/mL glucose 6-phosphate dehydrogenase to a concentration of 1.5 μg/mL (Enzyme Solution). Cortisone (100 μM) in DMSO was diluted to 1 μM with 50 mM Tris-HCl, 100 mM NaCl (Substrate Solution). Test compounds (40 μM) in DMSO were diluted 3 fold in series in DMSO and further diluted 20 fold in Substrate Solution. Enzyme Solution (10 μL/well) was added into 384 well microtiter plates followed by diluted compound solutions (10 μL/well) and mixed well. Samples were then incubated at 37° C. for 30 min. EDTA/biotin-cortisol solution (10 μL/well) in 28 mM EDTA, 100 nM biotin-cortisol, 50 mM Tris-HCl, 100 mM NaCl was then added followed by 5 μL/well of anti-cortisol antibody (3.2 μg/mL) in 50 mM Tris-HCl, 100 mM NaCl, 0.1 mg/mL BSA and the solution was incubated at 37° C. for 30 min. Five μL per well of Eu-conjugated anti-mouse IgG (16 nM) and APC-conjugated streptavidin (160 nM) in 50 mM Tris-HCl, 100 mM NaCl, 0.1 mg/mL BSA was added and the solution was incubated at room temperature for 2 hours. Signals were quantitated by reading time-resolved fluorescence on a Victor 5 reader (Wallace).
Percent inhibition of HSD1 activity by an agent at various concentrations was calculated by the following formula: % Inhibition=100*[1−(Fs−Fb)/(Ft−Fb)], wherein: • Fs is the fluorescence signal of the sample which included the agent, • Fb is the fluorescence signal in the absence of HSD1 and agent, • Ft is the fluorescence signal in the presence of HSD1, but no agent.
The inhibitory activities of test compounds were determined by the IC50s, or the concentration of compound that gave 50% inhibition.

Chain of Purified human HSD1 (P28845 whole entry): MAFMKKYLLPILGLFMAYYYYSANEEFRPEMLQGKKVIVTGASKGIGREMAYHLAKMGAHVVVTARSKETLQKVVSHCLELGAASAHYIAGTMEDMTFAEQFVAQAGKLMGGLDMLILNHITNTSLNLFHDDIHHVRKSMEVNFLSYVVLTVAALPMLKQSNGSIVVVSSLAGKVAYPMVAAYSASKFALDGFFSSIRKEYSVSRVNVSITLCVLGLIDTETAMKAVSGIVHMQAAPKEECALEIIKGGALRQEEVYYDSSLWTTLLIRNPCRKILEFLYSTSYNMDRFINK

Row | IC50 | Compound
1 | 50 nM | O=C(c1csc(-c2ccccc2Cl)n1)N1CCCCCCC1 [Example 10, Azocan-1-yl-[2-(2-chloro-phenyl)-thiazol-4-yl]-methanone]
2 | 373 nM | COc1ccc(-c2nc(C(=O)N3CCCC4CCCCC43)cs2)cc1 (stereo not drawn) [Example 17, [2-(4-Methoxy-phenyl)-thiazol-4-yl]-(octahydro-quinolin-1-yl)-methanone]
3 | 365 nM | Cc1ccc(-c2nc(C(=O)N3CC(C)CC(C)C3)cs2)cc1 (stereo not drawn) [Example 33, (3,5-Dimethyl-piperidin-1-yl)-(2-p-tolyl-thiazol-4-yl)-methanone]
4 | 102 nM | CCOc1cc(Cl)ccc1-c1nc(C(=O)N2CCCC3CCCCC32)cs1 (stereo not drawn) [Example 46, [2-(4-Chloro-2-ethoxy-phenyl)-thiazol-4-yl]-(octahydro-quinolin-1-yl)-methanone]
5 | 457 nM | O=C(c1csc(-c2cccc(OCc3ccccc3)c2)n1)N1CCCC2CCCCC21 (stereo not drawn) [Example 61, [2-(3-Benzyloxy-phenyl)-thiazol-4-yl]-(octahydro-quinolin-1-yl)-methanone]
6 | 40 nM | O=C(c1csc(-c2cccc(Cl)c2Cl)n1)N1CCCC[C@H]1c1ccccn1 [Example 96, [2-(2,3-Dichloro-phenyl)-thiazol-4-yl]-(S)-3,4,5,6-tetrahydro-2H-[2,2′]bipyridinyl-1-yl-methanone]
7 | 340 nM | C[C@@H]1CCC[C@H](C)N1C(=O)c1csc(-c2ccccc2Cl)n1 [Example 115, [2-(2-Chloro-phenyl)-thiazol-4-yl]-((2S,6R)-2,6-dimethyl-piperidin-1-yl)-methanone]
8 | 1500 nM | COc1cccc(Cl)c1-c1nc(C(=O)N2CCCC3CCCCC32)cs1 (stereo not drawn) [Example 117, [2-(2-Chloro-6-methoxy-phenyl)-thiazol-4-yl]-(octahydro-quinolin-1-yl)-methanone]
9 | 730 nM | COc1ccccc1-c1nc(C(=O)N2CCCCC2C)cs1 (stereo not drawn) [Example 119, [2-(2-Methoxy-phenyl)-thiazol-4-yl]-(2-methyl-piperidin-1-yl)-methanone]
10 | 1900 nM | O=C(N[C@H]1CC[C@H](O)CC1)c1csc(-c2ccccc2Cl)n1 [Example 124, 2-(2-Chloro-phenyl)-thiazole-4-carboxylic acid (4-hydroxy-cyclohexyl)-amide]
11 | 930 nM | O=C(c1csc(-c2ccc(-c3ccccc3)cc2)n1)N1CCCC2CCCCC21 (stereo not drawn) [Example 180, (2-Biphenyl-4-yl-thiazol-4-yl)-(octahydro-quinolin-1-yl)-methanone]

Row | Compound | IC50
12 | CC(=O)c1ccccc1-c1nc(C(=O)NC2CCCCCC2)cs1 [Example 144, 2-(2-Acetyl-phenyl)-thiazole-4-carboxylic acid cycloheptyl amide] | 32 nM
